Assay [1] has as its target T1, Norepinephrine transporter (Rattus norvegicus, UniProt Q9WTR4). The assay is described as follows: Inhibition of [3H]mazindol binding to Norepinephrine transporter.
Assay [2] concerns the target Sodium-dependent serotonin transporter (Rattus norvegicus, UniProt P31652). Nature of the assay: Inhibition of [3H]paroxetine binding to Serotonin transporter.
The target of assay [3] is T2, Sodium-dependent dopamine transporter (Rattus norvegicus, UniProt P23977). Nature of the assay: Inhibition of [3H]WIN-35428l binding to Dopamine transporter.
Assay [4] deals with Sodium-dependent serotonin transporter (Rattus norvegicus) (UniProt P31652). Nature of the assay: Ratio of IC50(5-HT) to the IC50(DA).
Assay [5] has as its target T2, Sodium-dependent dopamine transporter. The assay is described as follows: Compound was evaluated for the inhibition of [3H]WIN-35428l binding to dopamine transporter.
For assay [6], the target named is T1, Norepinephrine transporter. The assay is described as follows: Compound was evaluated for the inhibition of [3H]mazindol binding to norepinephrine (NE) transporter.

Structures are written as SMILES.

T1 sequence (Q9WTR4 whole entry): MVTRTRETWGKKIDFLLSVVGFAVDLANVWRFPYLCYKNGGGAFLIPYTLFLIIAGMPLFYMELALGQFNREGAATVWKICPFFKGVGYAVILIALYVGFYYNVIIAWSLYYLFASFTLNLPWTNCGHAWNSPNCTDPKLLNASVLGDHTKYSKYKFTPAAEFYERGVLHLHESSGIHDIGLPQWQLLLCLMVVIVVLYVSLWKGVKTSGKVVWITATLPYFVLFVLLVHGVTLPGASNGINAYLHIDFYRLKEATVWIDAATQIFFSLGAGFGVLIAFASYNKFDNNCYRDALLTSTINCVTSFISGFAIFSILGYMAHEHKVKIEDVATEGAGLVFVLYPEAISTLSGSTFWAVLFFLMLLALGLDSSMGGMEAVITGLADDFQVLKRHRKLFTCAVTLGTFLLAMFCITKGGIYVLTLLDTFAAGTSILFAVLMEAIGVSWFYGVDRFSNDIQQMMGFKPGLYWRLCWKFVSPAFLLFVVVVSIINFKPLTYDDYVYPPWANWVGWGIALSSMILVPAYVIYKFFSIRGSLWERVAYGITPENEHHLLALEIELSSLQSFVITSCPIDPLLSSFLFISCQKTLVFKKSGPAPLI
T2 sequence (P23977 whole entry): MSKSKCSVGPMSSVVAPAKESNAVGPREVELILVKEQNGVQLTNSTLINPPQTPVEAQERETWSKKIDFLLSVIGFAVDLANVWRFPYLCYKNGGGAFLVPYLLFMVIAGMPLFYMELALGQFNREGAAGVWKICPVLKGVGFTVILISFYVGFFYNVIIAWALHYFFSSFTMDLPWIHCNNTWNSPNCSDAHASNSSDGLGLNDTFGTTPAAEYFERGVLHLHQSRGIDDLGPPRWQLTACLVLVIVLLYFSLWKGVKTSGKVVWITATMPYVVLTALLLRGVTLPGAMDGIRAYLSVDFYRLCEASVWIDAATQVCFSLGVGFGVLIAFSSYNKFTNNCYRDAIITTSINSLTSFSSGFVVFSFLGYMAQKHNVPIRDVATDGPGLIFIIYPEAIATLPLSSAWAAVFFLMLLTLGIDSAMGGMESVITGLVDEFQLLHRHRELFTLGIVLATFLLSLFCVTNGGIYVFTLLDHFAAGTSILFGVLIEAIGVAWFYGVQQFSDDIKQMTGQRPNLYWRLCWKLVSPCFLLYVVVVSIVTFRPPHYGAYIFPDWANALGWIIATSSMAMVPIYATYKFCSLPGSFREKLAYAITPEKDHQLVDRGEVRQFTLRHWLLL
Sodium-dependent serotonin transporter, sequence (P31652 whole entry): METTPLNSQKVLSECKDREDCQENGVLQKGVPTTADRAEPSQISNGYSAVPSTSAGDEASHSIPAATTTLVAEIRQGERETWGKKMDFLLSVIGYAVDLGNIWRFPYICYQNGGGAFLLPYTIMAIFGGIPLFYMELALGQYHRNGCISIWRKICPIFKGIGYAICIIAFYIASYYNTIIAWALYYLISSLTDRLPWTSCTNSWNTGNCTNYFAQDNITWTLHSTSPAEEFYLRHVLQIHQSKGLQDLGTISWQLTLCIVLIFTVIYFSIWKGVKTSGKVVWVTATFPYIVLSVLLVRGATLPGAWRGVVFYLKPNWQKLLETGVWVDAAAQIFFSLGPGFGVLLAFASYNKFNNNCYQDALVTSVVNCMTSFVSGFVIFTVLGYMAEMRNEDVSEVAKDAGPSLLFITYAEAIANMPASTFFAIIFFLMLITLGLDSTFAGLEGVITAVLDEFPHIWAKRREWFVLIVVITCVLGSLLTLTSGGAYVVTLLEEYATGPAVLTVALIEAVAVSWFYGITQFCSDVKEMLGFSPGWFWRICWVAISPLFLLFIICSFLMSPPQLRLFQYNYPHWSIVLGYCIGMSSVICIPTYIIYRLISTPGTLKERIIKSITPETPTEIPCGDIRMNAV
Sodium-dependent serotonin transporter (Rattus norvegicus), sequence (P31652 whole entry): as above

As to `CC(C)OC(=O)[C@@H]1C2CC[C@H](C[C@@H]1c1ccc(Cl)cc1)N2C`, the IC50 in assay [1] was determined as 2150 nM; in assay [2] it was 1400 nM; in assay [3], 1.41 nM. In addition, the Ratio in assay [4] was 996.

In the case of `CC(C)OC(=O)[C@@H]1C2CC[C@H](C[C@@H]1OC(=O)c1ccccc1)N2C`, the 50% inhibitory concentration (IC50) amounted to 23500 nM in assay [1] and 25700 nM in assay [2]. Also, the Ratio in assay [4] came to 122.

The molecule `COC(=O)C1C2CC[C@H](C[C@@H]1c1ccc(Cl)cc1)N2C` (some centres undefined) showed an IC50 in assay [2] of 44.5 nM.

As to `COC(=O)[C@@H]1C2CC[C@H](C[C@@H]1c1ccc(C)cc1)N2C`, the IC50 in assay [3] amounted to 1.71 nM.

Regarding `CC(C)OC(=O)[C@@H]1C2CC[C@H](C[C@@H]1c1ccc(I)cc1)N2C`, the IC50 in assay [1] was 864 nM; in assay [2], 310 nM; in assay [3] it was 0.43 nM. The Ratio in assay [4] was determined as 721.

Consider `Cc1ccc([C@H]2C[C@H]3CCC([C@H]2C(=O)OC(C)C)N3C)cc1`, for which the half-inhibitory concentration (IC50) in assay [1] came to 4300 nM; in assay [2], 6410 nM; in assay [3], 5.29 nM. Further, in assay [4], the Ratio is 1210.

`CN1C2CC[C@@H]1C[C@H](OC(=O)c1ccccc1)[C@@H]2C(=O)Oc1ccccc1`: the IC50 stood at 37400 nM in assay [1], 57400 nM in assay [2] and 112 nM in assay [3]. The Ratio in assay [4] was 512.

Turning to `CN1C2CC[C@@H]1C[C@H](c1ccc(I)cc1)[C@@H]2C(=O)Oc1ccccc1`, the IC50 turned out to be 18300 nM in assay [1], 326 nM in assay [2] and 1.51 nM in assay [3]. Moreover, the Ratio in assay [4] came to 216.

With `CCCOC(=O)[C@@H]1C2CC[C@H](C[C@@H]1OC(=O)c1ccccc1)N2C`, the concentration for half-maximal inhibition (IC50) in assay [2] came out at 4130 nM; in assay [5] it was 191 nM; in assay [6], 15800 nM.

In the case of `CN1C2CC[C@@H]1C[C@H](c1ccc(Cl)cc1)[C@@H]2C(=O)Oc1ccccc1`, the IC50 in assay [1] is 4570 nM; in assay [2] it was 2340 nM; in assay [3], 1.99 nM. In assay [4], the Ratio was found to be 1170.

In the case of `COC(=O)[C@@H]1C2CC[C@H](C[C@@H]1c1ccc(I)cc1)N2C`, the half-maximal inhibitory concentration (IC50) in assay [1] was 34.6 nM; in assay [2], 4.2 nM; in assay [3], 1.26 nM. Besides, the Ratio in assay [4] came out at 3.3.

Regarding `COC(=O)[C@H]1[C@@H](c2ccc(F)cc2)C[C@H]2CC[C@H]1N2C`, the half-inhibitory concentration (IC50) worked out at 1240 nM in assay [1] and 759 nM in assay [2].

On to `CCOC(=O)[C@@H]1C2CC[C@H](C[C@@H]1OC(=O)c1ccccc1)N2C`, for which the values for the half-maximal inhibitory concentration (IC50) in assay [1], in assay [2] and in assay [3] were 26800 nM, 9060 nM and 130 nM, respectively. The Ratio in assay [4] turned out to be 70.

As to `CN1C2CC[C@@H]1C[C@H](OC(=O)c1ccccc1)[C@@H]2C(=O)OCCCc1ccccc1`, the IC50 in assay [2] was found to be 374 nM; in assay [6], 25100 nM.

For `Cc1ccc([C@H]2C[C@H]3CCC([C@H]2C(=O)Oc2ccccc2)N3C)cc1`, the half-maximal inhibitory concentration (IC50) is 10800 nM in assay [1], 29700 nM in assay [2] and 3.27 nM in assay [3]. The Ratio in assay [4] came to 9070.

Molecule `COC(=O)[C@@H]1C2CC[C@H](C[C@@H]1c1ccccc1)N2C` displayed an IC50 in assay [1] of 2080 nM.

A word on the IC50: it is the midpoint of a concentration-inhibition curve. A low value points to higher potency.

Source of the values: ChEMBL document CHEMBL1125471, “Isopropyl and phenyl esters of 3 beta-(4-substituted phenyl)tropan-2 beta-carboxylic acids. Potent and selective compounds for the dopamine transporter” (J Med Chem, 1992).
